According to patent US4782160A, “1,4-dihydropyridine derivatives” (Yamanouchi Pharmaceutical Co., Ltd., priority 1986, dated 1988):

How the values were obtained:
[1] = tested on: conscious normotensive rats; assay: Hypotensive activity: blood pressure and heart rate in conscious normotensive rats after oral administration; type: in vivo, rat
Method: The effect of the compound on arterial blood pressure (systolic, SBP mean, MBP diastolic, DBP) and heart rate (HR) was evaluated in conscious normotensive rats (NTR). Four to six days before the experiments, a polyethylene catheter for recording arterial blood pressure was surgically implanted into the thoracic aorta via the carotid artery under ether anesthesia. Arterial blood pressure and heart rate were recorded under freely moving conditions. The test compounds were suspended in 0.5% methylcellulose solution and administered by oral gavage.
Table 2 summarizes the changes in HR, SBP, MBP and DBP of conscious NTR after oral administration of the test compounds.

[2] = based on calcium antagonistic activity; cited from earlier work
[3] = target: [^3 H]-Nitrendipine-labeled calcium channels; assay: [3H]-nitrendipine binding assay in rat brain membranes (Ca2+-antagonistic activity); details: mean of 3 experiments, 95% confidence limits in parenthesis on next line
Method: 1. Ca^2+ -Antagonistic activity:
Ca^2+ -Antagonistic activity of the compound was evaluated in [^3 H]-nitrendipine ([^3 H]-NIT) binding assay.

[4] = Acute toxicity in mice, intravenous (Up and Down Method); details: mouse, in vivo, i.v., ICR-SLC mice, n=10
Method: Acute toxicity of the test compound was evaluated according to the method of Brownlee, Hodges and Rosenblatt (The Up and Down Method with Small Samples. J. Am. Stat. As., 48, 262-277, 1953). The […] value of the test compound after intravenous injection to ICR-SLC mice was obtained (Table 3).

Compound: COC(=O)C1=C(C)NC(C)=C(C(=O)OC)C1c1ccccc1[N+](=O)[O-] [Nifedipine, reference compound]
- DBP Change (Δ) ([1]; 3 mg/kg p.o., 0.25 hr, n=8, initial 97 ± 1.8): -20.9 mmHg
- MBP Change (Δ) ([1]; 3 mg/kg p.o., 0.25 hr, n=8, initial 110 ± 1.8): -18.7 mmHg
- SBP Change (Δ) ([1]; 3 mg/kg p.o., 0.25 hr, n=8, initial 136 ± 2.2): -14.4 mmHg
- HR Change (Δ) ([1]; 3 mg/kg p.o., 0.25 hr, n=8, initial 349 ± 6.9): 77.4 beats/min
- DBP Change (Δ) ([1]; 3 mg/kg p.o., 0.5 hr, n=8, initial 97 ± 1.8): -19.9 mmHg
- MBP Change (Δ) ([1]; 3 mg/kg p.o., 0.5 hr, n=8, initial 110 ± 1.8): -19.1 mmHg
- SBP Change (Δ) ([1]; 3 mg/kg p.o., 0.5 hr, n=8, initial 136 ± 2.2): -17.6 mmHg
- HR Change (Δ) ([1]; 3 mg/kg p.o., 0.5 hr, n=8, initial 349 ± 6.9): 51.6 beats/min
- DBP Change (Δ) ([1]; 3 mg/kg p.o., 0.75 hr, n=8, initial 97 ± 1.8): -20.1 mmHg
- MBP Change (Δ) ([1]; 3 mg/kg p.o., 0.75 hr, n=8, initial 110 ± 1.8): -19.5 mmHg
- SBP Change (Δ) ([1]; 3 mg/kg p.o., 0.75 hr, n=8, initial 136 ± 2.2): -18.1 mmHg
- HR Change (Δ) ([1]; 3 mg/kg p.o., 0.75 hr, n=8, initial 349 ± 6.9): 35.4 beats/min
- DBP Change (Δ) ([1]; 3 mg/kg p.o., 1 hr, n=8, initial 97 ± 1.8): -18.9 mmHg
- SBP Change (Δ) ([1]; 3 mg/kg p.o., 1 hr, n=8, initial 136 ± 2.2): -17.0 mmHg
- HR Change (Δ) ([1]; 3 mg/kg p.o., 1 hr, n=8, initial 349 ± 6.9): 23.0 beats/min
- DBP Change (Δ) ([1]; 3 mg/kg p.o., 1.5 hr, n=8, initial 97 ± 1.8): -11.8 mmHg
- MBP Change (Δ) ([1]; 3 mg/kg p.o., 1.5 hr, n=8, initial 110 ± 1.8): -11.5 mmHg
- SBP Change (Δ) ([1]; 3 mg/kg p.o., 1.5 hr, n=8, initial 136 ± 2.2): -11.0 mmHg
- HR Change (Δ) ([1]; 3 mg/kg p.o., 1.5 hr, n=8, initial 349 ± 6.9): 12.9 beats/min
- DBP Change (Δ) ([1]; 3 mg/kg p.o., 2 hr, n=8, initial 97 ± 1.8): -9.4 mmHg
- MBP Change (Δ) ([1]; 3 mg/kg p.o., 2 hr, n=8, initial 110 ± 1.8): -9.7 mmHg
- SBP Change (Δ) ([1]; 3 mg/kg p.o., 2 hr, n=8, initial 136 ± 2.2): -10.4 mmHg
- HR Change (Δ) ([1]; 3 mg/kg p.o., 2 hr, n=8, initial 349 ± 6.9): 2.3 beats/min
- DBP Change (Δ) ([1]; 3 mg/kg p.o., 3 hr, n=8, initial 97 ± 1.8): -2.6 mmHg
- MBP Change (Δ) ([1]; 3 mg/kg p.o., 3 hr, n=8, initial 110 ± 1.8): -3.5 mmHg
- SBP Change (Δ) ([1]; 3 mg/kg p.o., 3 hr, n=8, initial 136 ± 2.2): -5.4 mmHg
- HR Change (Δ) ([1]; 3 mg/kg p.o., 3 hr, n=8, initial 349 ± 6.9): -20.3 beats/min
- DBP Change (Δ) ([1]; 3 mg/kg p.o., 4 hr, n=8, initial 97 ± 1.8): 0.9 mmHg
- MBP Change (Δ) ([1]; 3 mg/kg p.o., 4 hr, n=8, initial 110 ± 1.8): 0.5 mmHg
- SBP Change (Δ) ([1]; 3 mg/kg p.o., 4 hr, n=8, initial 136 ± 2.2): -0.3 mmHg
- HR Change (Δ) ([1]; 3 mg/kg p.o., 4 hr, n=8, initial 349 ± 6.9): -13.4 beats/min
- cerebro- and/or coronary vasodilating action [2]: exhibits cerebro- and/or coronary vasodilating action

Compound: COC(=O)C1=C(C)NC(C)=C(C(=O)OC)C1c1cc([N+](=O)[O-])ccc1OCCCCNCCCOc1ccccc1 [Example 1, dimethyl 4-[2-[4-(3-phenoxypropylamino)butoxy]-5-nitrophenyl]-2,6-dimethyl-1,4-dihydropyridine-3,5-dicarboxylate]
- Ki [3]: 75 nM
- DBP Change (Δ) ([1]; 30 mg/kg p.o., 1 hr, n=6, initial 103 ± 3.6): -13.0 mmHg
- MBP Change (Δ) ([1]; 30 mg/kg p.o., 1 hr, n=6, initial 114 ± 3.6): -12.1 mmHg
- SBP Change (Δ) ([1]; 30 mg/kg p.o., 1 hr, n=6, initial 137 ± 3.7): -10.2 mmHg
- HR Change (Δ) ([1]; 30 mg/kg p.o., 1 hr, n=6, initial 361 ± 7.7): 43.0 beats/min
- DBP Change (Δ) ([1]; 30 mg/kg p.o., 2 hr, n=6, initial 103 ± 3.6): -21.3 mmHg
- MBP Change (Δ) ([1]; 30 mg/kg p.o., 2 hr, n=6, initial 114 ± 3.6): -20.0 mmHg
- SBP Change (Δ) ([1]; 30 mg/kg p.o., 2 hr, n=6, initial 137 ± 3.7): -17.2 mmHg
- HR Change (Δ) ([1]; 30 mg/kg p.o., 2 hr, n=6, initial 361 ± 7.7): 77.8 beats/min
- DBP Change (Δ) ([1]; 30 mg/kg p.o., 3 hr, n=6, initial 103 ± 3.6): -25.5 mmHg
- MBP Change (Δ) ([1]; 30 mg/kg p.o., 3 hr, n=6, initial 114 ± 3.6): -25.1 mmHg
- SBP Change (Δ) ([1]; 30 mg/kg p.o., 3 hr, n=6, initial 137 ± 3.7): -24.3 mmHg
- HR Change (Δ) ([1]; 30 mg/kg p.o., 3 hr, n=6, initial 361 ± 7.7): 62.2 beats/min
- DBP Change (Δ) ([1]; 30 mg/kg p.o., 4 hr, n=6, initial 103 ± 3.6): -19.0 mmHg
- MBP Change (Δ) ([1]; 30 mg/kg p.o., 4 hr, n=6, initial 114 ± 3.6): -18.9 mmHg
- SBP Change (Δ) ([1]; 30 mg/kg p.o., 4 hr, n=6, initial 137 ± 3.7): -18.7 mmHg
- HR Change (Δ) ([1]; 30 mg/kg p.o., 4 hr, n=6, initial 361 ± 7.7): 55.0 beats/min
- DBP Change (Δ) ([1]; 30 mg/kg p.o., 5 hr, n=6, initial 103 ± 3.6): -16.7 mmHg
- MBP Change (Δ) ([1]; 30 mg/kg p.o., 5 hr, n=6, initial 114 ± 3.6): -16.5 mmHg
- SBP Change (Δ) ([1]; 30 mg/kg p.o., 5 hr, n=6, initial 137 ± 3.7): -16.2 mmHg
- HR Change (Δ) ([1]; 30 mg/kg p.o., 5 hr, n=6, initial 361 ± 7.7): 55.3 beats/min
- DBP Change (Δ) ([1]; 30 mg/kg p.o., 6 hr, n=6, initial 103 ± 3.6): -13.2 mmHg
- MBP Change (Δ) ([1]; 30 mg/kg p.o., 6 hr, n=6, initial 114 ± 3.6): -14.4 mmHg
- SBP Change (Δ) ([1]; 30 mg/kg p.o., 6 hr, n=6, initial 137 ± 3.7): -16.8 mmHg
- HR Change (Δ) ([1]; 30 mg/kg p.o., 6 hr, n=6, initial 361 ± 7.7): 30.5 beats/min
- DBP Change (Δ) ([1]; 30 mg/kg p.o., 8 hr, n=6, initial 103 ± 3.6): -12.5 mmHg
- MBP Change (Δ) ([1]; 30 mg/kg p.o., 8 hr, n=6, initial 114 ± 3.6): -13.5 mmHg
- SBP Change (Δ) ([1]; 30 mg/kg p.o., 8 hr, n=6, initial 137 ± 3.7): -15.3 mmHg
- HR Change (Δ) ([1]; 30 mg/kg p.o., 8 hr, n=6, initial 361 ± 7.7): 33.0 beats/min
- DBP Change (Δ) ([1]; 30 mg/kg p.o., 10 hr, n=6, initial 103 ± 3.6): -12.3 mmHg
- MBP Change (Δ) ([1]; 30 mg/kg p.o., 10 hr, n=6, initial 114 ± 3.6): -13.1 mmHg
- SBP Change (Δ) ([1]; 30 mg/kg p.o., 10 hr, n=6, initial 137 ± 3.7): -14.7 mmHg
- HR Change (Δ) ([1]; 30 mg/kg p.o., 10 hr, n=6, initial 361 ± 7.7): 22.5 beats/min
- DBP Change (Δ) ([1]; 30 mg/kg p.o., 24 hr, n=6, initial 103 ± 3.6): 0.7 mmHg
- MBP Change (Δ) ([1]; 30 mg/kg p.o., 24 hr, n=6, initial 114 ± 3.6): 0.7 mmHg
- SBP Change (Δ) ([1]; 30 mg/kg p.o., 24 hr, n=6, initial 137 ± 3.7): 0.7 mmHg
- HR Change (Δ) ([1]; 30 mg/kg p.o., 24 hr, n=6, initial 361 ± 7.7): 28.0 beats/min
- LD50 [4]: 29 mg/kg

Compound: COC(=O)C1=C(C)NC(C)=C(C(=O)OCCN(C)Cc2ccccc2)C1c1cccc([N+](=O)[O-])c1 (centres unmarked) [Nicardipine]
- cerebro- and/or coronary vasodilating action [2]: exhibits cerebro- and/or coronary vasodilating action
